Data as given in patent US7906334B2, “Method for reproducing conifers by somatic embryogenesis using lactose as a carbon source” (Cellfor Inc., priority 2003, dated 2011).

Columns and labels:
[1] = system: loblolly pine lines LP1 and LP3; test: Effect of galactose and galactose-containing sugars during proliferation and prematuration on SE yield; assay type: cell-based, Pinus taeda (loblolly pine); set-up: Amount of tissue at the end of the preculture II stage: unit not given here; settings: for # SE/g FW / Amount of tissue at the end of the preculture II stage: 1% sucrose, 1.5% maltose, 1.5% lactose or 0.75% galactose
Procedure: The finding that loblolly pine cultures were capable of utilising galactose is unique. In order to further investigate these phenomenon two lines, LP1 and LP3, were cultured on semi-solid TX medium containing 1.0% lactose and 0.5% sucrose. Cultures were maintained by subculturing the embryogenic tissue every 10 to 14 days to fresh media. All cultures were incubated at 23° C. in the dark. Suspension cultures were initiated as described in Example 3, however, TX medium was supplemented with either 1% sucrose, 1.5% maltose, 1.5% lactose, or 0.75% galactose. These cultures were maintained in liquid media for 4 weeks by weekly transfers to fresh maintenance or prematuration media. After the 4˜week period, 1 ml of the liquid medium containing 0.1 g of tissue consisting of early stage somatic embryos was plated on each […] plates containing ½ LV maturation medium. This medium contained 120 μM ABA and 6.0% sucrose and 1% Phytagel. Eight to ten weeks later, mature somatic embryos were counted and treatments were evaluated based on the number of somatic embryos per gram fresh weight (Table 5).

[2] = system: Suspension cultures of loblolly lines LP1, LP2, LP3, LP4 and LP5; test: Effect of carbon source on liquid maintenance: growth rate and yield of somatic embryos; assay type: cell-based, Pinus taeda (loblolly pine); settings: 1% sucrose; for # SE/g FW ± sd: 1.5% maltose or 1.5% lactose for 4 weeks in liquid, then 8-10 weeks on 1/2 LV maturation medium; for Average amount of tissue produced after 4 weeks in liquid (FW g): 1.5% maltose or 1.5% lactose in maintenance and prematuration I and II, started with 2 g
Procedure: Suspension cultures of loblolly lines LP1, LP2, LP3, LP4 and LP5 were started with 2 g of tissue introduced to 50 ml of TX liquid medium containing different sugars—1% sucrose, 1.5% maltose, or 1.5% lactose. These cultures were maintained in the same liquid media for 2 weeks by weekly transfers to fresh maintenance medium containing the above sugars. Then, 2 g of tissue produced in each maintenance medium was transferred to prematuration media I, containing the same carbon source as the maintenance media. After one week, 1.5 g of tissue from each prematuration medium I was transferred to prematuration media II containing the same sugars. After the 4 week period in liquid media, early stage somatic embryos were collected and plated on ½ LV maturation medium containing 120 μM ABA and 6.0% sucrose and 1% Phytagel. Eight to ten weeks later, mature somatic embryos were counted and treatments were evaluated based on the number of somatic embryos per gram fresh weight (SE/g FW). Table 2 summarises the tissue yield at the end of the 4-week period and the number of mature somatic embryos produced for each line.

[3] = system: Douglas fir embryogenic tissue, cell line DF-2; test: Effects of carbohydrates on liquid maintenance of Douglas fir embryogenic tissue; assay type: cell-based, Pseudotsuga menziesii (Douglas fir); settings: 3 weeks suspension maintenance/bulking-up, 0.5% galactose, 1% lactose, 0.5% mannitol
Procedure: The culture medium for Douglas fir was TX medium (see Table A) with the following additives: glutamine 100 mg., Casein hydrolysate 100 mg., and pH 5.8. The following compounds were added into the basal medium for Douglas fir somatic embryo development at different stages: • 1) Induction medium: 18 μM 2,4-D and 9 μM BA, phytagel 0.28%, sucrose 1% • 2) Solid maintenance medium: 9 μM 2,4-D and 4.5 μM BA, phytagel 0.28%, sucrose 1%. • 3) Liquid maintenance and bulking-up medium: 9 μM 2,4-D and 4.5 μM BA, different carbon sources for experiments. • 4) Liquid pre-treatment medium: 20 (first week) or 30 μM ABA (second week), 10% PEG4000 (first week) or PEG1500 (second week), different carbon sources as described in examples below. • 5) Solid maturation media: TX (Table A) plus 0.02% NH4NO3 • Medium I. 40 μM ABA, 10% PEG 1500, maltose 2.5%, phytagel 0.6% • Medium II. 60 μM ABA, 10% PEG1500, maltose 2.5% and sucrose 1%, phytagel 0.8% • Medium III. 70 μM ABA, 6% PEG1500, sucrose 6%, phytagel 1%.
Embryogenic tissue was induced from immature zygotic embryos. The cones and seeds were surface-sterilised as described for pines, and embryos were dissected out from megagametophytes. The embryos, with the attachment of suspensors to their megagametophytes, were placed on the surface of induction medium. The culture was kept in darkness at 23° C. Embryogenic tissue was sub-cultured once every two weeks onto solid maintenance medium.
Embryogenic tissue of Douglas fir was collected from solid maintenance culture and one gram of tissue was transferred into a 200 ml flask containing 50 ml TX (see Table A) liquid maintenance medium. The liquid maintenance medium was supplied with different sugars (Table 8).
The tissue was drained, weighed and sub-cultured once per week. During a culture period of three weeks, the highest tissue growth was found in the culture with glucose as the major carbon source. The media containing sucrose, maltose and galactose also supported a fast tissue growth. With these latter sugars, tissue increased to 68 to 100 fold in three weeks. Tissue grew little in the media containing lactose or mannitol. […] Similar results were obtained within two cell lines, DF-7A and DF-2.

[4] = system: radiata pine lines RP1, RP2, RP3, and RP4; test: Effect of carbon source on somatic embryo development of radiata pine in liquid cultures; assay type: cell-based, Pinus radiata (radiata pine); settings: for # SE/g FW ± sd / Grams FW at the end of proliferation stage (from 1.5 g): 1.0% sucrose or 3.0% galactose in TXR prematuration media I and II; for tissue morphology: tissue induced and maintained on MSG sucrose or TXR galactose
Description: Tissue induced on MSG containing sucrose was further maintained on MSG sucrose medium, and tissue induced on TXR galactose was maintained on TXR medium containing galactose as described in Example 6. The tissue morphology of the lines induced on galactose was different from that induced on sucrose. […] The lines used in this study were RP1, RP2, RP3, and RP4.
Suspension cultures were initiated as described in Example 6. These cultures were maintained in liquid media for 20-28 days by transfers to fresh maintenance medium every 10 to 14 days. Up to five fold increase of the tissue was estimated at the end of each 10 to 14 day transfer.
In order to study the effect of galactose on embryo development after the proliferation stage, 2 g tissue was further transferred to 250 ml flasks, containing 50 ml of TXR prematuration medium I supplemented with either 1.0% sucrose or 3.0% galactose. As with loblolly pine cultures, prematuration I requires reduction of hormones either by reducing the auxin and cytokinin concentrations to optimally about 1/20 of the concentration of proliferation step, or by adding charcoal at about 0.01 to 1%, or a combination of both.
After the 10-14 day period, 1.5 g tissue was transferred to 250 ml flasks containing 50 ml TXR prematuration medium II to which either 1.0% sucrose or 3.0% galactose and 90 μM ABA were added.
Early stage somatic embryos were collected after 10 to 14 days and matured on modified ½ LV maturation medium as described in Example 6.

[5] = system: loblolly pine embryogenic tissue; test: Effect of carbon source on solid maintenance of loblolly pine; assay type: cell-based, Pinus taeda (loblolly pine); settings: semi-solid TX medium; 1% sucrose, or 1.5% lactose and 0.025% glucose
Procedure: Tissue induced on sucrose from Example 1 was further maintained on the semi-solid TX medium containing 1% sucrose, and tissue induced on lactose was maintained on semi-solid TX medium containing 1.5% lactose and 0.025% glucose. The tissue morphology of the lines induced on lactose was different from the ones induced on sucrose. […] In order to further increase the proliferation rate, 0.5% sucrose was added to the TX 1.5% lactose-containing medium in place of 0.025% glucose. This medium provided a reasonable bulk-up rate, and growth of embryos was more synchronized than in the 1% sucrose medium.

[6] = system: Douglas fir embryogenic tissue; test: Medium osmolarity before and after one-week tissue inoculation; assay type: cell-based, Pseudotsuga menziesii (Douglas fir); settings: medium with 0.5% galactose, 1% lactose, 0.5% mannitol or 0.5% glucose
Description: More change of medium osmolarity occurred during week 2 than week 1. The medium osmolarity changed little when lactose or mannitol was used in the media.

[7] = system: radiata pine megagametophytes containing immature zygotic embryos; test: Effect of carbon source on induction of radiata pine; assay type: cell-based, Pinus radiata (radiata pine)
Procedure: Female gametophytes containing immature zygotic embryos were used as explants. The cones were surface sterilised in 10% bleach solution for 15 min. They were rinsed 3 times with sterile water, air dried and stored in polyethylene bags at 4° C. until used. Seeds were sterilised in 3% hydrogen peroxide containing 0.1% Tween 20 and rinsed in sterile deionized water. Megagametophytes containing the immature embryos were plated on MSG (standard radiata pine medium containing sucrose, Table B) and on TX medium (Table A) supplemented with 2.2 mg/l 2,4-D, 1 mg/l BA and 0.3% Phytagel and containing 1.5% galactose and 0.5% sucrose. Casein hydrolysate was reduced to 1000 mg/l (TXR medium).
Cultures were maintained on the two media by subculturing the embryogenic tissue every 10 to 14 days to fresh media. All cultures were incubated at 23° C. in the dark. Suspension cultures were initiated as 2 g of tissue were introduced to 50 ml of TXR liquid medium containing 1.0% sucrose. […]
One ml of TXR medium containing 0.1 g tissue consisting of early stage somatic embryos was plated on modified ½ LV maturation medium (Table C) in which glutamine was reduced to 500 mg/l and casein hydrolysate to 1000 mg/l. […] Twelve to fourteen weeks later, mature somatic embryos were counted and treatments were evaluated based on the number of somatic embryos per gram fresh weight.

[8] = additional glucose 0%, 0.5% glucose, 1% sucrose, 1% maltose

SMILES	# SE/g FW ([1]; line LP1)	Amount of tissue at the end of the preculture II stage ([1]; line LP1)	# SE/g FW ([1]; line LP3)	Amount of tissue at the end of the preculture II stage ([1]; line LP3)	# SE/g FW ± sd [2]	Average amount of tissue produced after 4 weeks in liquid (FW g) [2]	Tissue growth (fold, mean ± SD) [3, 8]	embryos produced ([1]; line LP1, as stated in the text)	amount of tissue at the end of the 4 week-liquid period ([1]; line LP3, sucrose as sole carbon source)	# SE/g FW ± sd [4]	Grams FW at the end of proliferation stage (from 1.5 g) [4]	tissue morphology [4]	tissue morphology [5]	Osmolarity before inoculation (mmol/kg, mean ± SD) [6]	Tissue growth (fold, mean ± SD) ([3]; additional glucose 0.025%)	Induction success, galactose compared with sucrose medium ([7]; galactose as carbon source)	subsequent yields of mature embryos, galactose compared with sucrose medium ([7]; tissues induced on galactose)	Tissue growth increase ([4]; galactose as carbon source)	number of mature somatic embryos at the end of maturation ([4]; galactose as carbon source)
OC[C@H]1O[C@H](O[C@H]2[C@H](O)[C@@H](O)[C@H](O)O[C@@H]2CO)[C@H](O)[C@@H](O)[C@@H]1O [Maltose, maltose]	106 ± 4 SE/g FW	232.18	160 ± 5 SE/g FW	118.22	209 ± 28 SE/g FW	204.45 g	85.01 ± 1.71 fold												
OC[C@H]1O[C@@](CO)(O[C@H]2O[C@H](CO)[C@@H](O)[C@H](O)[C@H]2O)[C@@H](O)[C@@H]1O [Sucrose, sucrose]	11 ± 3 SE/g FW	121.22	100 ± 6 SE/g FW	1278.18	126 ± 20 SE/g FW	592.06 g	100.94 ± 12.0 fold	11 embryos	1278.18 g	213.3 ± 6 SE/g FW	11.05 ± 2 g	predominantly suspensor type tissue and very few embryos	Predominantly suspensor type tissue and very few embryos						
OC[C@@H](O)[C@@H](O)[C@H](O)[C@H](O)CO [mannitol, reference compound]							1.60 ± 0.13 fold							76 ± 1 mmol/kg	3.34 ± 0.22 fold				
O=C[C@H](O)[C@@H](O)[C@@H](O)[C@H](O)CO [Galactose]	216 ± 8 SE/g FW	59.45	172 ± 5 SE/g FW	8.65			68.64 ± 4.58 fold			405.3 ± 10 SE/g FW	9.5 ± 2 g	more early stage immature embryos and a limited amount of suspensor type of surrounding tissue		71.67 ± 1.15 mmol/kg	97.02 ± 2.67 fold	greater than three times higher	almost double	more than 5 times	doubled
